These results are taken from patent US20230279025A1, “KRAS G12D INHIBITORS” (Mirati Therapeutics, Inc., priority 2020, published 2023).

Each structure is given as a SMILES string. Structures can show the parent of a compound that is named as a salt.

For this assay, the target named is KRas G12D (Homo sapiens (Human), UniProt P01116, G12D). Nature of the assay: KRas G12D Binding Assay (TR-FRET displacement of Cy5 labelled tracer). The conditions noted are these: GDP-loaded KRAS G12D (amino acids 1:169), 60 minute incubation at 22° C. The procedure: After a 60 minute incubation at 22° C., the reaction was measured using a PerkinElmer EnVision multimode plate reader via TR-FRET dual wavelength detection, and the percent of control (POC) calculated using a ratiometric emission factor. […] The POC values were fit to a 4-parameter logistic curve and the IC50 value was determined as the concentration where the curve crosses 50 POC.
ND stands for “not determined.”
(In general: In TR-FRET formats the signal depends on donor and acceptor labels being close together.)

KRas G12D, sequence (P01116 other isoform, or with tags, fused parts or gaps G12D): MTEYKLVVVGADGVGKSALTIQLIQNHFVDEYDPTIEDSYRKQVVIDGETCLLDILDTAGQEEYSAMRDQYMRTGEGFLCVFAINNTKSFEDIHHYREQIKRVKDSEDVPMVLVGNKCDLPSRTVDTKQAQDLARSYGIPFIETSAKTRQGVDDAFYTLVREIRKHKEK

As for `Oc1cc(-c2ncc3c(N4C[C@H]5CC[C@@H](C4)N5)nc(OC[C@@]45CCCN4C[C@H](F)C5)nc3c2F)c2c(Cl)cccc2c1` [Example 251, 4-(4-((1R,5S)-3,8-diazabicyclo[3.2.1]octan-3-yl)-8-fluoro-2-(((2R,7aS)-2-fluorohexahydro-1H-pyrrolizin-7a-yl)methoxy)pyrido[4,3-d]pyrimidin-7-yl)-5-chloronaphthalen-2-ol], the IC50 (as a rule, the midpoint of a concentration-inhibition curve) was determined as 0.2 nM.

For the compound `Cc1cc(-c2ncc3c(N4CC5CCC(C4)N5)nc(OC[C@@]45CCCN4C[C@H](F)C5)nc3c2F)c2cn[nH]c2c1` (stereo in doubt) [Example 391, 4-((1R,5S)-3,8-diazabicyclo[3.2.1]octan-3-yl)-8-fluoro-2-((2-fluorotetrahydro-1H-pyrrolizin-7a(5H)-yl)methoxy)-7-(6-methyl-1H-indazol-4-yl)pyrido[4,3-d]pyrimidine], the IC50 was 662 nM. The result for `Nc1cccc(F)c1-c1ncc2c(N3C[C@H]4CC[C@@H](C3)N4)nc(OCC34CCCN3CCC4)nc2c1F` [Example 265, 2-(4-((1R,5S)-3,8-diazabicyclo[3.2.1]octan-3-yl)-8-fluoro-2-((hexahydro-1H-pyrrolizin-7a-yl)methoxy)pyrido[4,3-d]pyrimidin-7-yl)-3-fluoroaniline] reads 794 nM. The compound `Fc1c(-c2cccc3cccc(Cl)c23)ncc2c(N3CC4CCC(C3)N4)nc(OC[C@]34CCCN3C[C@H](c3ccccc3)C4)nc12` (stereo in doubt) [Example 221, 4-((1R,5S)-3,8-diazabicyclo[3.2.1]octan-3-yl)-7-(8-chloronaphthalen-1-yl)-8-fluoro-2-((2-phenyltetrahydro-1H-pyrrolizin-7a(5H)-yl)methoxy)pyrido[4,3-d]pyrimidine bis-hydrochloride salt] gave an IC50 of 15.7 nM. On to `O[C@@H]1C[C@@H]2CN(c3nc(OCCn4ccnc4C(F)F)nc4c(F)c(-c5cccc6cccc(Cl)c56)ncc34)C[C@H]1N2` [Example 172, (1R,5R,6R)-3-(7-(8-chloronaphthalen-1-yl)-2-(2-(2-(difluoromethyl)-1H-imidazol-1-yl)ethoxy)-8-fluoropyrido[4,3-d]pyrimidin-4-yl)-3,8-diazabicyclo[3.2.1]octan-6-ol], for which the IC50 was 689 nM. The compound `c1ccc2c(-c3cc4nc(OCC56CCCN5CCC6)nc(N5C[C@H]6CC[C@@H](C5)N6)c4cn3)cccc2c1` [Example 233, 4-((1R,5S)-3,8-diazabicyclo[3.2.1]octan-3-yl)-7-(naphthalen-1-yl)-2-((tetrahydro-1H-pyrrolizin-7a(5H)-yl)methoxy)pyrido[4,3-d]pyrimidine] registered a half-maximal inhibitory concentration (IC50) of 387 nM. In turn, `Fc1c(-c2cccc(Cl)c2OC(F)(F)F)ncc2c(N3CC4CCC(C3)N4)nc(OCC34CCCN3CCC4)nc12` [Example 230, 4-((1R,5S)-3,8-diazabicyclo[3.2.1]octan-3-yl)-7-(3-chloro-2-(trifluoromethoxy)phenyl)-8-fluoro-2-((tetrahydro-1H-pyrrolizin-7a(5H)-yl)methoxy)pyrido[4,3-d]pyrimidine bis(2,2,2-trifluoroacetate] yielded an IC50 of 1430 nM. The result for `Cc1cccc2cccc(-c3ncc4c(N5C[C@H]6CC[C@@H](C5)N6)nc(OCC56CCCN5CCC6)nc4c3F)c12` [Example 334, 4-((1R,5S)-3,8-diazabicyclo[3.2.1]octan-3-yl)-8-fluoro-7-(8-methylnaphthalen-1-yl)-2-((tetrahydro-1H-pyrrolizin-7a(5H)-yl)methoxy)pyrido[4,3-d]pyrimidine] reads 10 nM; that for `Cc1cc2[nH]ncc2c(-c2ncc3c(N4C[C@H]5CC[C@@H](C4)N5)nc(OCC45CCCN4CCC5)nc3c2F)c1C` [Example 249, 4-((1R,5S)-3,8-diazabicyclo[3.2.1]octan-3-yl)-7-(5,6-dimethyl-1H-indazol-4-yl)-8-fluoro-2-((hexahydro-1H-pyrrolizin-7a-yl)methoxy)pyrido[4,3-d]pyrimidine], 3.5 nM.

For `Cc1ccc2cccc(-c3ncc4c(N5C[C@H]6CC[C@@H](C5)N6)nc(OC[C@@H]5CCCN5C)nc4c3F)c2c1` [Example 321, 4-((1R,5S)-3,8-diazabicyclo[3.2.1]octan-3-yl)-8-fluoro-7-(7-methylnaphthalen-1-yl)-2-(((S)-1-methylpyrrolidin-2-yl)methoxy)pyrido[4,3-d]pyrimidine], the IC50 is 613 nM. In turn, `CC1(c2ccccc2-c2ncc3c(N4C[C@H]5CC[C@@H](C4)N5)nc(OCC45CCCN4CCC5)nc3c2F)CC1` [Example 305, 4-((1R,5S)-3,8-diazabicyclo[3.2.1]octan-3-yl)-8-fluoro-2-((hexahydro-1H-pyrrolizin-7a-yl)methoxy)-7-(2-(1-methylcyclopropyl)phenyl)pyrido[4,3-d]pyrimidine] gave a half-inhibitory concentration (IC50) of 367 nM. The compound `Oc1c(F)cc(F)c(-c2ncc3c(N4C[C@H]5CC[C@@H](C4)N5)nc(OCC45CCCN4CCC5)nc3c2F)c1F` [Example 350, 3-(4-((1R,5S)-3,8-diazabicyclo[3.2.1]octan-3-yl)-8-fluoro-2-((tetrahydro-1H-pyrrolizin-7a(5H)-yl)methoxy)pyrido[4,3-d]pyrimidin-7-yl)-2,4,6-trifluorophenol] registered an IC50 of 3820 nM. Compound `O[C@H]1CN2CCC[C@@]2(COc2nc(N3CC4CCC(C3)N4)c3cnc(-c4cccc5cccc(Cl)c45)c(F)c3n2)C1` [Example 223, 7a-(((4-((1R,5S)-3,8-diazabicyclo[3.2.1]octan-3-yl)-7-(8-chloronaphthalen-1-yl)-8-fluoropyrido[4,3-d]pyrimidin-2-yl)oxy)methyl)hexahydro-1H-pyrrolizin-2-ol bis-2,2,2-trifluoroacetate] returned an IC50 of 7.1 nM. Regarding `Cn1cc(CCOc2nc(N3C[C@H]4CC[C@@H](C3)N4)c3cnc(-c4cccc5cccc(Cl)c45)c(F)c3n2)cn1` [Example 146, 4-((1R,5S)-3,8-diazabicyclo[3.2.1]octan-3-yl)-7-(8-chloronaphthalen-1-yl)-8-fluoro-2-(2-(1-methyl-1H-pyrazol-4-yl)ethoxy)pyrido[4,3-d]pyrimidine], the IC50 is 2290 nM. `CCc1ccc(O)cc1-c1ncc2c(N3C[C@H]4CC[C@@H](C3)N4)nc(OCC34CCCN3CCC4)nc2c1F` [Example 263, 3-(4-((1R,5S)-3,8-diazabicyclo[3.2.1]octan-3-yl)-8-fluoro-2-((hexahydro-1H-pyrrolizin-7a-yl)methoxy)pyrido[4,3-d]pyrimidin-7-yl)-4-ethylphenol] yielded an IC50 of 1.5 nM. The result for `Fc1c(-c2cccc3cccc(C4CC4)c23)ncc2c(N3C[C@H]4CC[C@@H](C3)N4)nc(OCC34CCCN3CCC4)nc12` [Example 335, 4-((1R,5S)-3,8-diazabicyclo[3.2.1]octan-3-yl)-7-(8-cyclopropylnaphthalen-1-yl)-8-fluoro-2-((tetrahydro-1H-pyrrolizin-7a(5H)-yl)methoxy)pyrido[4,3-d]pyrimidine] reads 25.8 nM. As to `N#Cc1cccc2cccc(-c3ncc4c(N5C[C@H]6CC[C@@H](C5)N6)nc(OCC56CCCN5CCC6)nc4c3F)c12` [Example 198, 8-(4-((1R,5S)-3,8-diazabicyclo[3.2.1]octan-3-yl)-8-fluoro-2-((tetrahydro-1H-pyrrolizin-7a(5H)-yl)methoxy)pyrido[4,3-d]pyrimidin-7-yl)-1-naphthonitrile], the IC50 turned out to be 20.3 nM.
